This is an account of results in US9770452B2, “Quinoxaline derivatives as GPR6 modulators” (Takeda Pharmaceutical Company Limited, priority 2012, dated 2017).

Test [1] concerns haloperidol-induced catalepsy. The experiment in a line: Haloperidol-Induced Catalepsy, in vivo rodent Parkinson's disease model (mice). The note with it: mouse; for % reversal 30 min: 30 min after dosing with haloperidol; for % reversal 120 min: 120 min after dosing with haloperidol. From the text:
(§1) Haloperidol-Induced Catalepsy—In Vivo Rodent Parkinson's Disease Model
The motor symptoms of Parkinson's disease include akinesia, bradykinesia, rigidity, tremor and postural abnormalities and are associated with the loss of nigral dopaminergic cells and a decline in striatal dopamine levels. Administration of haloperidol to rodents leads to a transient parkinsonian-like state that is reversed by the administration of L-Dopa (Duty, S.; Jenner, P. Br. J. Pharmacol. (2011), 164, 1357-1391) and other drugs that have been clinically validated for the treatment of Parkinson's disease. Haloperidol antagonizes dopamine D2 and, to a lesser extent, D1 receptors in medium spiny neurons that comprise the indirect and direct pathways of the motor circuit respectively. The resultant block of striatal dopamine transmission results in abnormal downstream firing within the basal ganglia circuits that is manifest as symptoms of muscle rigidity and catalepsy. Catalepsy has been postulated to reflect the clinical features of Parkinson's disease, whereby patients experience an inability of to initiate movements.
Male Sprague-Dawley rats (Charles River, Calco, Italy) weighing 175-200 g are used. Alternatively, male C57Bl6 mice weighing 25-35 g were used. The cataleptic state was induced by the subcutaneous administration of the dopamine receptor antagonist haloperidol (0.3 mg/kg, sc), 90 min before testing the animals on the vertical grid test. For this test, the rats or mice were placed on the wire mesh cover of a 25 cm×43 cm plexiglass cage placed at an angle of about 70 degrees with the bench table. The subject was placed on the grid with all four legs abducted and extended (“frog posture”). The use of such an unnatural posture is essential for the specificity of this test for catalepsy. The time span from placement of the paws until the first complete removal of one paw (descent latency) was measured maximally for 120 sec for rats. For mice, the front paws of a mouse was placed on a horizontal metal bar raised 2″ above a Plexiglas platform and time was recorded for up to 30 seconds per trial. The test ended when the animal's front paws returned to the platform or after 30 seconds. The test was repeated three times and the average of the three trials was reported as the intensity index of catalepsy.
Catalepsy was measured 30 min, 120 min, and/or 240 min after dosing the subjects a 0.3 mg/kg i.p. dose of haloperidol along with the GPR6 modulator test compound. Test compound plasma and brain levels were determined by collected tissue samples at the end of the experiment, which was either at the 120 or 240 min time point. A representative number of compounds of the invention were administered in a dose range from 0.1 to 100 mg/kg i.p, sc or po in conjunction with haloperidol. The A2a antagonist KW6002 (istradefylline) was dosed at 0.6 mg/kg i.p. as a positive control. The compounds of the invention produced reversal of haloperidol-induced catalepsy. The results of a representative no. of compounds of this invention in this assay are disclosed in the table below.

For a further test, the target named is T1, GPR6 receptor (Homo sapiens, UniProt P46095).
T1 construct: expressed in transfected cells
The experiment in a line: Inhibition of cAMP Activity of GPR6 In Vitro Assay (CHO-K1 cells, HTRF cAMP). Particulars: compounds of Compound Table 1; inhibition of constitutive cAMP activity of GPR6 expressed in CHO-K1 cells; approximate IC50; read-out: IC50. The test is classed as cell-based. Summed up:
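CHO-K1 cells with doxycycline-induced (1 μg/ml, 20 h) GPR6 treated with compounds 45 min at 37 °C in Ringer's buffer (pH 7.4) with 0.5% fatty acid free BSA. Constitutive cAMP measured by Lance HTRF Ultra cAMP; IC50 from four-parameter logistic fit.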
In general terms: TR-FRET usually uses a lanthanide donor and a delayed reading to cut background.

In test [2] the test system is haloperidol-induced catalepsy. The experiment in a line: Haloperidol-Induced Catalepsy, in vivo rodent Parkinson's disease model (rats). Particulars: rat, 10 mpk sc.
Description: as §1
The motor symptoms of Parkinson's disease include akinesia, bradykinesia, rigidity, tremor and postural abnormalities and are associated with the loss of nigral dopaminergic cells and a decline in striatal dopamine levels. Administration of haloperidol to rodents leads to a transient parkinsonian-like state that is reversed by the administration of L-Dopa (Duty, S.; Jenner, P. Br. J. Pharmacol. (2011), 164, 1357-1391) and other drugs that have been clinically validated for the treatment of Parkinson's disease. […]
Male Sprague-Dawley rats (Charles River, Calco, Italy) weighing 175-200 g are used. […] The time span from placement of the paws until the first complete removal of one paw (descent latency) was measured maximally for 120 sec for rats. For mice, the front paws of a mouse was placed on a horizontal metal bar raised 2″ above a Plexiglas platform and time was recorded for up to 30 seconds per trial. […]
Catalepsy was measured 30 min, 120 min, and/or 240 min after dosing the subjects a 0.3 mg/kg i.p. dose of haloperidol along with the GPR6 modulator test compound. Test compound plasma and brain levels were determined by collected tissue samples at the end of the experiment, which was either at the 120 or 240 min time point. […]

Counter-ions that a name gives are not always drawn.

T1 sequence (P46095 whole entry): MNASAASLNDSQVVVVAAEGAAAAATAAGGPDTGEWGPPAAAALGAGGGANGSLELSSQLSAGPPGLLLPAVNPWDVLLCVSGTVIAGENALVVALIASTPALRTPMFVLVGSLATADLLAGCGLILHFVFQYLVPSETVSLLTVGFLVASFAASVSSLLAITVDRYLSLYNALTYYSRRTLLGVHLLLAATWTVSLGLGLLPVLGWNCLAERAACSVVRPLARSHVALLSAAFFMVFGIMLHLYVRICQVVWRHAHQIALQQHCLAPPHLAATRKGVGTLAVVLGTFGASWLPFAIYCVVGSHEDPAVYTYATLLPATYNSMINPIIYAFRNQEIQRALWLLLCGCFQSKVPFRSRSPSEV

For the molecule `N#Cc1ccc2nc(NC3CC3)c(N3CCN(Cc4cc(Cl)ccc4Cl)CC3)nc2c1` [Cpd 59, 2-(cyclopropylamino)-3-(4-(2,5-dichlorobenzyl)piperazin-1-yl) quinoxaline-6-carbonitrile], in test [1] (10 mpk ip), the “% reversal 30 min” value is 42% and the “% reversal 120 min” value is listed as 18.8%. In test [1] (30 mpk ip), the “% reversal 30 min” value is 27.4% and the “% reversal 120 min” value is 15.7%. For the same molecule, the IC50 (in general, the concentration at which inhibition is half-maximal) at GPR6 receptor amounted to 250 nM.
Regarding `Clc1cccc(CN2CCN(c3nc4ccccc4nc3Nc3cccnc3)CC2)c1.O=C(O)C(F)(F)F` [Cpd 53, 3-(4-(3-chlorobenzyl)piperazin-1-yl)-N-(pyridin-3-yl)quinoxalin-2-amine, 2,2,2-trifluoroacetic acid salt], in test [1] (30 mpk ip), the “% reversal 30 min” value was determined as 13.6% and the “% reversal 120 min” value stood at 15.4%. In addition, the IC50 on GPR6 receptor was 1200 nM.
For the molecule “3-(4-(2,4-difluorobenzyl)piperidin-1-yl)-2-(pyridin-3-ylamino)quinoxaline-6-carbonitrile, 2,2,2-trifluoroacetic acid salt [Cpd 415]”, in test [2] (30 min after dosing with haloperidol), the “% reversal 30 min” value turned out to be 36.9%. Besides, in test [2] (120 min after dosing with haloperidol), the “% reversal 120 min” value is recorded as 25.1%. Besides, the IC50 on GPR6 receptor turned out to be 64 nM.
With `Clc1ccc(Cl)c(CN2CCN(c3nc4ccccc4nc3NC3CC3)CC2)c1.O=C(O)C(F)(F)F` [Cpd 33, N-cyclopropyl-3-(4-(2,5-dichlorobenzyl)piperazin-1-yl)quinoxalin-2-amine, 2,2,2-trifluoroacetic acid salt], in test [1] (30 mpk ip), the “% reversal 30 min” value is given as 48.1% and the “% reversal 120 min” value was 41.4%. The IC50 at GPR6 receptor was 2160 nM.
Turning to `Clc1cccc(Cl)c1CN1CCN(c2nc3ccccc3nc2NC2CC2)CC1.O=C(O)C(F)(F)F` [Cpd 50, N-cyclopropyl-3-(4-(2,6-dichlorobenzyl)piperazin-1-yl)quinoxalin-2-amine, 2,2,2-trifluoroacetic acid salt], in test [1] (30 mpk ip), the “% reversal 30 min” value was 40.4% and the “% reversal 120 min” value is listed as 29.6%.
For `Clc1cccc(CN2CCN(c3nc4ccccc4nc3Nc3ncccn3)CC2)c1` [Cpd 126, 3-(4-(3-chlorobenzyl)piperazin-1-yl)-N-(pyrimidin-2-yl)quinoxalin-2-amine, 2,2,2-trifluoroacetic acid salt], on GPR6 receptor, the IC50 was found to be 47000 nM.
On the same count and under the same terms, for “2-(cyclopropylamino)-3-(4-((2-fluorophenyl)sulfonyl)piperazin-1-yl)quinoxaline-6-carbonitrile, 2,2,2-trifluoroacetic acid salt [Cpd 241]” the value was 650 nM; for “(2-chloro-4-fluorophenyl)(4-(2-(cyclopropylamino)pyrido[3,4-b]pyrazin-3-yl)piperazin-1-yl)methanone, 2,2,2-trifluoroacetic acid salt [Cpd 363]”, 230 nM.
With “8-chloro-3-(4-(5-chloro-2-fluorobenzyl)piperazin-1-yl)-N-cyclopropylpyrido[3,4-b]pyrazin-2-amine, 2,2,2-trifluoroacetic acid salt [Cpd 351]”, at GPR6 receptor, the IC50 was 62 nM.
